From patent US10927107B2, “Phenyl [a]indole[2,3-g]quinolizine compounds, preparation method therefor, pharmaceutical composition, and applications thereof” (Shanghai Institute of Materia Medica, Chinese Academy of …, priority 2016, dated 2021)
Like-named read-outs stand apart in the source and are kept apart here.

Tests used:
[1] = test system: HepG2 cells; assay: In vitro lipid-lowering activity: DiI-LDL uptake in HepG2 cells; format: cell-based; conditions: Homo sapiens, test compound 5 uM, 24 h, DiI-LDL 20 ug/ml, 3 h, FLU of sample group/FLU of blank group x100%, read-out: LDL uptake rate
Protocol: HepG2 cells were inoculated in 24-well plates, cultured in DMEM containing 10% FBS for 24 h or 48 h, and then transferred to DMEM containing 2% defatted serum and cultivated for 24 h. The old culture solution was discarded and replaced with new 2% defatted serum DMEM, and a test compound (the working concentration of which is 5 uM, triplicate for each sample) was added and incubated for 24 h. The old culture solution was abandoned and DMEM containing DiI-LDL (20 ug/ml) was added (300 ul/per 24 wells), incubated for 3 h. DMEM containing DiI-LDL was discarded, and cells were rinsed twice with PBS containing 0.4% BSA, and 3 times with PBS to remove excess DiI-LDL. Isopropanol was added (500 ul/per well of a 24-well plate), and was kept in darkness. After shaken for 20 minutes, 200 ul of supernatant was sucked to a black fluorescent plate, and fluorescence intensity (FLU) was detected at excitation light 520 nm and emission light 578 nm. The experimental results were calculated: LDL uptake rate=(FLU value of sample group to be tested/FLU value of blank group)×100%.

[2] = molecular target: T1, α1A-adrenergic receptor (α1A-AR) (Homo sapiens, UniProt P35348); assay: Antagonistic activity on α1A-AR: calcium fluorescence in HEK293 cells stimulated with phenylephrine; format: cell-based; conditions: HEK293 cells expressing α1A-AR; agonist phenylephrine 30 nM; calcium fluorescence; read-out: α1A-AR/IC50
T1 construct: expressed in transfected cells; host or cells: HEK293
T1 sequence (P35348 1-466): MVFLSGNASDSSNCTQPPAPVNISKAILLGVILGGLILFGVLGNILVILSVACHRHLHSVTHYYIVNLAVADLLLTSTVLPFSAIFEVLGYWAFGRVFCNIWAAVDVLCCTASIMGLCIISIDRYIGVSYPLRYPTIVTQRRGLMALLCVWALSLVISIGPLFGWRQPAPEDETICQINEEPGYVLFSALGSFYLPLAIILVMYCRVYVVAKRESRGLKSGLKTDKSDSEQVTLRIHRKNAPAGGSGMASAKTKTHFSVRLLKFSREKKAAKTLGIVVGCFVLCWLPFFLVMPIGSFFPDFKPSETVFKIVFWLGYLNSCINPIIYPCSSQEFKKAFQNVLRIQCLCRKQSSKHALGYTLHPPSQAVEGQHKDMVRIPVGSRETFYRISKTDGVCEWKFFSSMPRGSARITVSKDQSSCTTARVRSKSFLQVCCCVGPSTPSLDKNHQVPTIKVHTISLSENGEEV
Protocol: HEK293 cells stably expressing α1A-adrenergic receptor (α1A-AR) and G protein […] were seeded in 96-well plates. After 24 hours of culture, the medium was removed, and 40 μL of Hank's balanced salt solution (HBSS: containing 5.4 mM KCl, 0.3 mM Na2HPO4, 0.4 mM KH2PO4, 4.2 mM NaHCO3, 1.3 mM CaCl2, 0.5 mM MgCl2, 0.6 mM MgSO4, 137 mM NaCl, 5.6 mM D-glucose and 250 μM sulfinpyridone, pH 7.4) containing 2 μM of MFluo-4AM was added to each well, and incubated for 45 minutes in an incubator. The dye was aspirated and 50 μL of HBSS containing a test compound or 1% DMSO (negative control) was added and incubated for 10 minutes at room temperature, and then read with Flex Station 3 microplate reader. At the specified time point, 25 μL of agonist phenylephrine (final concentration 30 nM) will be automatically added by the detector into the reaction system, and simultaneously stimulated with 485 nm light, and the change in intensity of fluorescence caused by the change in the intracellular calcium ion concentration was detected at 525 nm. […] The response rate of different doses of the same drug was analyzed by GraphPad Prism software to obtain a dose-response curve and the IC50 value was measured. Each experiment was performed in […].

[3] = test system: Syrian golden hamsters (high-fat diet, hyperlipidemia model); assay: In vivo lipid-lowering activity in high-fat diet golden hamsters; parameters: species or system Syrian golden hamster; conditions: for CHOL / HDL-C / LDL-C / TG: high-fat diet, serum
Protocol: After adaptively feeding Syrian golden hamsters (male, 80-100 g) for a week, all hamsters were fed with high-fat diet. Two weeks later, blood was collected from the orbital venous plexus, serum was separated, and levels of total cholesterol (TC), triglyceride (TG), high-density lipoprotein (HDL-C) and low-density lipoprotein (LDL-C) in serum were measured. They were evenly grouped according to blood lipid levels into […]: model control group, A1 intragastric administration group, A1 intraperitoneal administration group, A5 intragastric administration group, A5 intraperitoneal administration group, A55 intragastric administration group, A55 intraperitoneal administration group, B5 intragastric administration group, B5 intraperitoneal administration group, and the animals in each group were continued to be administered with high fat diet. […] […] Blood lipid levels and body weights were measured every 10 days. After three weeks, the animals were sacrificed and the liver was stored in a −80° C. refrigerator.

[4] = Rat pharmacokinetics; format: in vivo; parameters: AUC(0-t) / AUC(0-inf): concentration or dose not given beside the values; conditions: in vivo; for AUC(0-inf): read-out: AUCINF—obs; for MRT inf: read-out: MRTINF—obs
Protocol: (§1) A1 10 μL of a plasma sample was taken in a centrifuge tube and 100 μL of methanol:acetonitrile (1:1, v/v) was added, vortexed for 1 min, centrifugated (14000 rpm) for 5 min, and 50 μL supernatant was taken, mixed with equal volume of water, and analysised after vortex mixing. The linear range of A1 is: 0.1-300 ng/mL for oral administration and 1-3000 ng/mL for intravenous injection.
as §1, with “A55” for “A1”, “0.3-3000” for “1-3000”

[5] = Rat pharmacokinetics; parameters: AUC(0-t) / AUC(0-inf): concentration or dose not given beside the values; conditions: in vivo, ip, i.p; for AUC(0-inf): read-out: AUCINF—obs; for MRT inf: read-out: MRTINF—obs
[6] = abdominal (intraperitoneal) 30 mg/kg once a day for three weeks
[7] = oral (intragastric) 30 mg/kg once a day for three weeks

`COc1ccc2[nH]c3c(c2c1)CC1c2cc(OCc4ccc(F)cc4)c(OC)cc2CCN1C3c1ccc(F)cc1` (stereo not shown) [Example B5, 2-((4-fluorobenzyl)oxo)-8-(4-fluorophenyl)-3,12-dimethoxy-5,6,8,9,14,14a-hexahydroindole[3′,2′:4,5]pyridine[2,1-a]isoquinoline] gave an activity at 5 µM [1] of 134%, an IC50 [2] of over 100 µM and a CHOL [3, 6] of 14.92 mmol/L. It also gave an HDL-C [3, 6] of 2.90 mmol/L, an LDL-C [3, 6] of 7.89 mmol/L and a TG [3, 6] of 16.14 mmol/L. For the same compound, the CHOL [3, 7] was 14.79 mmol/L, the HDL-C [3, 7] was 3.99 mmol/L and the LDL-C [3, 7] was 7.66 mmol/L. The TG [3, 7] was 11.94 mmol/L and the “contents of cholesterol (CHOL), triglyceride (TG) and low density lipoprotein (LDL-C) in the blood” value ([3]; hyperlipidemia model) was “significantly reduced”.
`COc1ccc2[nH]c3c(c2c1)CC1c2cc(OCc4ccc(C(F)(F)F)cc4)c(OC)cc2CCN1C3` (stereo not shown) [Example C3, 3,12-dimethoxy-2-((4-(trifluoromethyl)benzyl)oxy)-5,6,8,9,14,14a-hexahydroindolo[3′,2′:4,5]pyridine[2,1-a]isoquinoline] showed a TC ([3]; Dose 30, oral) of 25.08 ± 16.98 mmol/L, a TC ([3]; Dose 100, oral) of 21.17 ± 3.89 mmol/L and a half-life ([4]; ip, i.p) of 18.5 h. It also gave an AUC(0-t) ([4]; po, i.g) of 3.96 µg·h/mL, a Cmax ([4]; po, i.g) of 297 ng/mL and a Tmax ([4]; po, i.g) of 4 h. It also gave a bioavailability ([4]; po, i.g) of 57.2%, a half-life ([4]; po, i.g) of 6.53 h and an AUC(0-inf) ([4]; po, i.g) of 4.34 µg·h/mL. It also gave an MRT inf ([4]; po, i.g) of 7.74 h, an AUC(0-t) [5] of 3.47 µg·h/mL and an AUC(0-inf) [5] of 9.36 µg·h/mL. It also gave an MRT inf [5] of 15.3 h.
`COc1ccc2[nH]c3c(c2c1)CC1c2cc(OC)c(OCc4ccc(C(F)(F)F)cc4)cc2CCN1C3` (stereo not shown) [Example C47, 2,12-dimethoxy-3-((4-(trifluoromethyl)benzyl)oxy)-5,6,8,9,14,14a-hexahydroindolo[3′,2′:4,5]pyridine[2,1-a]isoquinoline] showed an activity at 5 µM [1] of 150%, an IC50 [2] of over 100 µM and a TC ([3]; Dose 30, oral) of 19.73 ± 6.44 mmol/L. It also gave a Cmax ([4]; ip, i.p) of 276 ng/mL, a Tmax ([4]; ip, i.p) of 24 h and a half-life ([4]; ip, i.p) of 51.2 h. It also gave an AUC(0-t) ([4]; po, i.g) of 9.25 µg·h/mL, a Cmax ([4]; po, i.g) of 251 ng/mL and a Tmax ([4]; po, i.g) of 4 h. It also gave a bioavailability ([4]; po, i.g) of 31%, a half-life ([4]; po, i.g) of 38.2 h and an AUC(0-inf) ([4]; po, i.g) of 564 µg·h/mL. The MRT inf ([4]; po, i.g) was 56.1 h, the AUC(0-t) [5] was 14.9 µg·h/mL and the AUC(0-inf) [5] was 1120 µg·h/mL. For the same compound, the MRT inf [5] was 66.4 h.
